Test results as given in article PMC8778818, “Synthesis, Structural Characterization and Anticancer Activity of New 5-Trifluoromethyl-2-thioxo-thiazolo[4,5-d]pyrimidine Derivatives” (Pharmaceuticals, 2022).

How the values were obtained:
MCF-7/WT = test: MTT cell viability assay, MCF-7/WT; type: cell-based; settings: Homo sapiens, MCF7, 72 h, mean ± SD
Method: (§1) Twelve compounds (2a-e, 3a-d and 4a-c) at a concentration range of 50–5000 μM were tested for their antiproliferative potential against four human cancer cell lines (A375—melanotic melanoma, C32—amelanotic melanoma, DU145—prostate cancer androgen-independent, MCF-7/WT—breast adenocarcinoma) and two normal cell lines: Chinese Hamster Ovary (CHO-K1) and immortalized human keratinocytes from histologically normal skin (HaCaT).
(§2) To determine the antiproliferative activity of newly synthesized compounds, the following cell lines were used: human melanotic melanoma cell line (A375), human amelanotic melanoma cell line (C32), human breast adenocarcinoma cell line (MCF-7/WT), human prostate cancer androgen-independent (DU145) and two normal cell lines: hamster ovarian (CHO-K1) and immortalized human keratinocytes from histologically normal skin (HaCaT). The cells were obtained from the cell line bank of the Department of Molecular and Cellular Biology, Wroclaw Medical University. A375, C32, MCF-7/WT, DU145 and HaCaT cells were grown in a monolayer cultured in Dulbecco’s Modified Eagle’s Medium (DMEM, Sigma-Aldrich, Poznań, Poland), supplemented with 10% of fetal bovine serum (FBS, Gibco, Paisley, UK) and 1% of antibiotics (penicillin/streptomycin, Sigma-Aldrich) and CHO-K1 were grown in HAM’s F-12 medium (Sigma-Aldrich), supplemented with 10% fetal bovine serum (FBS, Gibco) and 1% of antibiotics (penicillin/streptomycin, Sigma-Aldrich). Cell lines were cultured in the polystyrene flasks 25 or 75 cm^2 (Thermo Fisher Scientific, Waltham, MA, USA), which were stored in 37 °C and 5% CO2 in a humidified 95% atmosphere (SteriCult, Thermo Scientific, Alab). The cell medium was exchanged twice a week. The exponentially growing cells were used throughout the experiments. The cells were rinsed with phosphate-buffered saline (PBS, Sigma-Aldrich) and trypsinized by Trypsin-EDTA 0.25% solution (Sigma-Aldrich).
(§3) The influence of the compounds was performed in a monolayer culture on cancer and normal cells. Compounds were initially dissolved in DMSO; further dilutions of the compound were performed in Dulbecco’s Modified Eagle’s Medium supplemented with 10% FBS. Compounds were tested in a 50–5000 µM concentration range. In the in vitro experiments, the concentrations of DMSO in the final solution of the compounds were used 0.05%; 0.1%; 0.5%; 1%, respectively.
(§4) Cell viability was determined using the MTT colorimetric assay. All cell lines were seeded into 96-well plates to a density of 3 × 10^4 cells/well. After 24 h, the culture supernatants were removed and appropriate dilutions of compounds in the culture medium (200 µL/well) were added to the cells’ monolayer cultures and incubated for an additional 72 h. After 72 h of exposition to the compounds and the removal of the culture medium, cell viability was determined by reducing the yellow dye 3-(4,5-dimethyl-2-thiazol)-2,5-diphenyl-2H-tetrazolium bromide (MTT assay, Sigma Saint Louis, MO, USA; In Vitro Toxicology Assay) to a blue formazan product. The absorbance of the resulting solutions in three duplicate experiments was measured at the wavelength of 560 nm in a microplate reader (EnSpire, Perkin Elmer, Kraków, Poland). MTT assay is a colorimetric method that estimates the rate of metabolism in viable cells. Absorbance is directly proportional to the number of viable cells. All the experiments were performed three times and the mean absorbance values were calculated. The methodology for the evaluation of the growth of human cancer and normal cells was described previously. The cell viability in each group was expressed as a percentage of control (untreated) cells.

[1] = system: A375, C32, DU145, MCF-7/WT, CHO-K1 and HaCaT cell lines; test: MTT cell viability assay, all six cell lines; type: cell-based; settings: mean over the six cell lines; read-out: Mean A: the mean IC50 for the given compound
Method: as §1, §2, §3, §4

C32 = test: MTT cell viability assay, C32; type: cell-based, human; settings: for IC50: Homo sapiens, C32, MTT, 72 h, mean ± SD; for cytotoxic effect (in words): C32, 72 h
Method: as §1, §2, §3, §4

CHO-K1 = test: MTT cell viability assay, CHO-K1; type: cell-based, Chinese Hamster; settings: CHO-K1 normal cells, 72 h; for IC50: Cricetulus griseus, MTT, mean ± SD
Method: as §1, §2, §3, §4

A375 = test: MTT cell viability assay, A375; type: cell-based, human; settings: A375, MTT, mean ± SD
Method: as §1, §2, §3, §4

DU145 = test: MTT cell viability assay, DU145; type: cell-based, human; settings: for IC50: Homo sapiens, DU-145, DU145, MTT, 72 h, mean ± SD; for cytotoxic effect (in words): DU145, 72 h
Method: as §1, §2, §3, §4

HaCaT = test: MTT cell viability assay, HaCaT; type: cell-based, human; settings: 72 h; for IC50: Homo sapiens, HaCaT normal cells, MTT, mean ± SD; for cytotoxic effect (in words): HaCaT human keratinocytes
Method: as §1, §2, §3, §4

[2] = system: 60 human cancer cell lines; set-up: method as in PMID 579132; settings: cited from earlier work; for Mean Growth %: 10^−5 M one dose, mean over the panel, analogs I–VII
HOP-92 = system: HOP-92; set-up: method as in PMID 579132; settings: NS Cell Lung C. HOP-92, 10^−5 M one dose; cited from earlier work
UO-31 = system: UO-31; set-up: method as in PMID 579132; settings: Renal C. UO-31, 10^−5 M one dose; cited from earlier work
RPMI-8226 = system: RPMI-8226; set-up: method as in PMID 579132; settings: Leukemia, 10^−5 M one dose; cited from earlier work
UACC-62 = system: UACC-62; set-up: method as in PMID 579132; settings: Melanoma UACC-62, 10^−5 M one dose; cited from earlier work
SF-295 = system: SF-295; set-up: method as in PMID 579132; settings: CNS C. SF-295, 10^−5 M one dose; cited from earlier work
[3] = values > −4.00 excluded, analogs IV and V

Structure (SMILES)	IC50 (MCF-7/WT)	IC50 (A375; Homo sapiens, A-375, 72 h)	IC50 (DU145)	IC50 [1]	IC50 (C32)	IC50 (CHO-K1)	IC50 (HaCaT)	Mean Growth % [2]	other results
O=c1[nH]c(-c2cccnc2)nc2c1sc(=S)n2-c1ccccc1 [III]								105.59%	Growth % of the most sensitive cell line (HOP-92): 73.81%
O=c1[nH]c(-c2ccc(F)cc2)nc2c1sc(=S)n2-c1ccccc1 [II]								106.11%	Growth % of the most sensitive cell line (HOP-92): 55.97%
S=c1sc2c(Cl)nc(-c3cccnc3)nc2n1-c1ccccc1 [IV]								20.78%	log TGI Δ ([2]; logarithmic difference between most sensible cell line and MG_MID, analog IV): 1.12; N2: number of cell lines giving positive log TGI (≤−4.01) ([2]; of N = 59 tested cell lines, analogs IV and V): 7; log GI50 Range [2, 3]: −5.28 to −6.26 log M; log LC50 Range [2, 3]: −5.17 to −5.26 log M; log TGI Range [2, 3]: −4.52 to −5.51 log M; Growth % of the most sensitive cell line (UO-31): −85.59%
O=c1[nH]c(-c2ccc(Cl)cc2)nc2c1sc(=S)n2-c1ccccc1 [I]								80.85%	Growth % of the most sensitive cell line (RPMI-8226): 29.76%
Fc1ccc(CNc2nc(-c3ccc(F)cc3)nc3c2sc(=S)n3-c2ccccc2)cc1 [VII]								89.50%	Growth % of the most sensitive cell line (UACC-62): 54.52%
Fc1ccc(CNc2nc(-c3ccc(Cl)cc3)nc3c2sc(=S)n3-c2ccccc2)cc1 [VI]								48.46%	Growth % of the most sensitive cell line (SF-295): −43.11%

The next lines start with results.

IC50 (MCF-7/WT)	IC50 (A375; Homo sapiens, A-375, 72 h)	IC50 (DU145)	Structure (SMILES)	IC50 [1]	IC50 (C32)	IC50 (CHO-K1)	IC50 (HaCaT)	Mean Growth % [2]	other results
519 ± 21.1 µM	429 ± 17.5 µM	251 ± 10.2 µM	CCn1c(=S)sc2c(=O)[nH]c(C(F)(F)F)nc21 [Compound 2a, 3-ethyl-2-thioxo-5-(trifluoromethyl)-2,3-dihydro[1, 3]thiazolo[4,5-d]pyrimidin-7(6H)-one]	462 µM	434 ± 17.7 µM	521 ± 21.2 µM	615 ± 25 µM		
420 ± 16.5 µM	450 ± 17.6 µM	163 ± 6.4 µM	O=c1[nH]c(C(F)(F)F)nc2c1sc(=S)n2-c1ccccc1F [Compound 2c, 3-(2-fluoropheny)l-2-thioxo-5-(trifluoromethyl)-2,3-dihydro[1, 3]thiazolo[4,5-d]pyrimidin-7(6H)-one]	411 µM	364 ± 14.3 µM	525 ± 20.6 µM	543 ± 21.3 µM		melting point: 211 to 212 °C
519 ± 21.9 µM	531 ± 22.4 µM	121 ± 5.1 µM	O=c1[nH]c(C(F)(F)F)nc2c1sc(=S)n2-c1cccc(F)c1 [Compound 2d, 3-(3-fluorophenyl)-2-thioxo-5-(trifluoromethyl)-2,3-dihydro[1, 3]thiazolo[4,5-d]pyrimidin-7(6H)-one]	472 µM	384 ± 16.2 µM	553 ± 23.3 µM	725 ± 30.6 µM		
434 ± 15.5 µM	379 ± 13.5 µM	139 ± 5 µM	O=c1[nH]c(C(F)(F)F)nc2c1sc(=S)n2-c1ccc(F)cc1 [Compound 2e, 3-(4-fluoropheny)l-2-thioxo-5-(trifluoromethyl)-2,3-dihydro[1, 3]thiazolo[4,5-d]pyrimidin-7(6H)-one]	337 µM	355 ± 12.6 µM	483 ± 17.2 µM	234 ± 8.3 µM		melting point: 259 to 260 °C
356 ± 9.1 µM	142 ± 3.6 µM	72.5 ± 1.9 µM	CCn1c(=S)sc2c(Cl)nc(C(F)(F)F)nc21 [Compound 3a, 7-chloro-3-ethyl-5-(trifluoromethyl)[1, 3]thiazolo[4,5-d]pyrimidine-2(3H)-thione]	145 µM	89.3 ± 2.3 µM	122 ± 3.1 µM	88.3 ± 2.3 µM		melting point: 66 to 67 °C; cytotoxic effect (in words) (C32): strong cytotoxic effect; cytotoxic effect (in words) (DU145): strong cytotoxic effect; cytotoxic effect (in words) (HaCaT): strong cytotoxic effect
248 ± 6 µM	108 ± 2.6 µM	168 ± 4 µM	Fc1ccccc1-n1c(=S)sc2c(Cl)nc(C(F)(F)F)nc21 [Compound 3c, 7-chloro-(2-fluoropheny)-5-(trifluoromethyl)[1, 3]thiazolo[4,5-d]pyrimidine-2(3H)-thione]	124 µM	86.4 ± 2.1 µM	93.8 ± 2.3 µM	37.8 ± 0.9 µM		cytotoxic effect (in words) (C32): strong cytotoxic effect; cytotoxic effect (in words) (CHO-K1): strong cytotoxic effect; cytotoxic effect (in words) (HaCaT): strong cytotoxic effect
540 ± 17.9 µM	103 µM	126 ± 4.2 µM	Fc1cccc(-n2c(=S)sc3c(Cl)nc(C(F)(F)F)nc32)c1 [Compound 3d, 7-chloro-(3-fluoropheny)-5-(trifluoromethyl)[1, 3]thiazolo[4,5-d]pyrimidine-2(3H)-thione]	288 µM	87.4 ± 2.9 µM	512 ± 17 µM	360 ± 11.9 µM		cytotoxic effect (in words) (C32): strong cytotoxic effect; cytotoxic effect (in words) (CHO-K1): non-toxic; IC50 (A375; 72 h): 104 ± 3.4 µM; cytotoxic effect (in words) (HaCaT): non-toxic
144 ± 4.4 µM	114 ± 3.5 µM	96.9 ± 3 µM	CNc1nc(C(F)(F)F)nc2c1sc(=S)n2-c1ccccc1 [Compound 4a, 7-(methylamino)-3-phenyl-5-(trifluoromethyl)[1, 3]thiazolo[4,5-d]pyrimidine-2(3H)-thione]	214 µM	132 ± 4.1 µM	48.5 ± 1.5 µM	748 ± 22.9 µM		melting point: 197 to 198 °C; cytotoxic effect (in words) (CHO-K1): high cytotoxicity; cytotoxic effect (in words) (DU145): high cytotoxicity
